Two compounds from BindingDB's records for doi:10.1021/acs.jmedchem.1c00019 (National Center For Advancing Translational Sciences, 2021) can be followed below.

pIC50: −log10 of the molar value. Where “and” joins values, the source holds several entries; their conditions need not be identical. Identical values can stand only once.

In assay [1] the target is T1, Isocitrate dehydrogenase [NADP] cytoplasmic (Homo sapiens, UniProt O75874). Put plainly: Inhibition of IDH1 R132C mutant (unknown origin) assessed as reduction in NADPH consumption using alpha-KG as substrate incubated for 5 mins by diaphorase/resazurin-coupled system. For orientation: Alamar Blue is a resazurin reagent that responds to reducing activity.
Target sequence in this assay (O75874 2-414 R132C limits assumed): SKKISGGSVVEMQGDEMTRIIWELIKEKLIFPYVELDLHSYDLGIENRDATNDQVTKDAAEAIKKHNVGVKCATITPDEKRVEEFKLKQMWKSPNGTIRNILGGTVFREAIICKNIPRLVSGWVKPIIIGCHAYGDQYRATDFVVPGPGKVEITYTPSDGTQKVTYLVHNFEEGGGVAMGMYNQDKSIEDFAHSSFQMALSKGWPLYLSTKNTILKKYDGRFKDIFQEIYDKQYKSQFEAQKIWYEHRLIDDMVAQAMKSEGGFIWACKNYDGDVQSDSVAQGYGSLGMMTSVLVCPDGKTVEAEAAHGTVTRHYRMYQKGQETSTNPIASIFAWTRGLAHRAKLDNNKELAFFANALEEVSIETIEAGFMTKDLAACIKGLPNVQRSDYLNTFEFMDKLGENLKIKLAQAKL
In assay [2] the target is T1, Isocitrate dehydrogenase [NADP] cytoplasmic. Briefly: Inhibition of IDH1 R132H mutant (unknown origin) assessed as reduction in NADPH consumption using alpha-KG as substrate incubated for 5 mins by diaphorase/resazurin-coupled system.
Target sequence in this assay (O75874 2-414 R132H limits assumed): as the sequence (O75874 2-414 R132C limits assumed) above, with C131H counted along it

A word on the pIC50: it is −log10 of the IC50, conventionally taken in molar units. On to `CCc1ccc(OC)cc1-n1c(C=C(C)C)c(C(=O)N2CCNCC2)cc(-c2nc(-c3ccc(Cl)cc3)cs2)c1=O`, for which the pIC50 in assay [1] was 6.89.

For the compound `CCc1ccc(Cl)cc1-n1c(C=C(C)C)c(C(=O)N2CCNCC2)cc(-c2nc(-c3ccc(Cl)cc3)cs2)c1=O`, the pIC50 in assay [1] is 7.00 and 7.14; in assay [2] it was 6.94 and 7.09.
